Data published in paper PMC4915074 (Nature communications, 2013).

Test system: VEGF
Assay: VEGF gene expression in THP1 cells by quantitative real-time PCR
Format: cell-based, human
Conditions: 10 ng/mL (1.66 nM), 2 h, vs vehicle

relaxin
increase in relative expression of VEGF mRNA: 2.4 fold
